# What was measured:
# Taselisib = compound: Cc1nc(-c2cn3c(n2)-c2ccc(-c4cnn(C(C)(C)C(N)=O)c4)cc2OCC3)n(C(C)C)n1 [Taselisib]; conditions: max 10 µM
# In short: (§1)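 Cancer cell lines were seeded into 1536-well plates in 7.5 μl medium (DMEM/F12 or RPMI, 10% FBS), held 24 hours at 37°C and 5% CO2, and dosed for 72 hours with final DMSO typically 0.2%. Luminescence from CellTiter-Glo 2.0, scaled between blank-well and DMSO-well means, served as viability. The single-agent IC50 was obtained from dose-response fits with a non-linear mixed effects model, each fit being a two-parameter logistic curve.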
# AZD2811 = compound: CCN(CCO)CCCOc1ccc2c(Nc3cc(CC(=O)Nc4cccc(F)c4)[nH]n3)ncnc2c1 [AZD2811]; conditions: max 1 µM
# In short: as §1
# AZD1390 = compound: CC(C)n1c(=O)n(C)c2cnc3cc(F)c(-c4ccc(OCCCN5CCCCC5)nc4)cc3c21 [AZD1390]; conditions: max 0.3 µM
# In short: as §1
# Trametinib = compound: CC(=O)Nc1cccc(-n2c(=O)n(C3CC3)c(=O)c3c(Nc4ccc(I)cc4F)n(C)c(=O)c(C)c32)c1 [Trametinib]; conditions: max 1 µM
# In short: as §1
# AZD1775 = compound: C=CCn1c(=O)c2cnc(Nc3ccc(N4CCN(C)CC4)cc3)nc2n1-c1cccc(C(C)(C)O)n1 [AZD1775]; conditions: max 3 µM
# In short: as §1
# AZD5991 = compound: Cc1c2c(nn1C)CSCc1cc(n(C)n1)CSc1cc(c3ccccc3c1)OCCCc1c(C(=O)O)n(C)c3c-2c(Cl)ccc13 [AZD5991]; conditions: max 1 µM
# In short: as §1
# AZD4320 = compound: CN(CC[C@H](CSC1=CC=CC=C1)NC2=C(C=C(C=C2)S(=O)(=O)NC(=O)C3=CC=C(C=C3)N4CCC(CC4)[C@H](C5=CC=CC=C5C6=CC=C(C=C6)Cl)O)S(=O)(=O)C(F)(F)F)CCO [AZD4320]; conditions: max 1 µM
# In short: as §1
# Lapatinib = compound: CS(=O)(=O)CCNCc1ccc(-c2ccc3ncnc(Nc4ccc(OCc5cccc(F)c5)c(Cl)c4)c3c2)o1 [Lapatinib]; conditions: max 10 µM
# In short: as §1
# Palbociclib = compound: CC(=O)c1c(C)c2cnc(Nc3ccc(N4CCNCC4)cn3)nc2n(C2CCCC2)c1=O [Palbociclib]; conditions: max 10 µM
# In short: as §1
# AZD0156 = compound: CN(C)CCCOc1ccc(-c2ccc3ncc4c(c3c2)n(C2CCOCC2)c(=O)n4C)cn1 [AZD0156]; conditions: max 3 µM
# In short: as §1
# 5-Fluorouracil = compound: O=c1[nH]cc(F)c(=O)[nH]1 [5-Fluorouracil]; conditions: max 20 µM
# In short: as §1
# SRA737 = compound: N#Cc1cnc(Nc2cc(NC[C@H]3CNCCO3)c(C(F)(F)F)cn2)cn1 [SRA737]; conditions: max 10 µM
# In short: as §1
# Prexasertib = compound: COc1cccc(OCCCN)c1-c1cc(Nc2cnc(C#N)cn2)n[nH]1 [Prexasertib]; conditions: max 1 µM
# In short: as §1
# Carboplatin = compound: C1CC(C1)(C(=O)[O-])C(=O)[O-].N.N.[Pt+2] [Carboplatin]; conditions: max 10 µM
# In short: as §1
# Gefitinib = compound: COc1cc2ncnc(Nc3ccc(F)c(Cl)c3)c2cc1OCCCN1CCOCC1 [Gefitinib]; conditions: max 10 µM
# In short: as §1
# [1] = compound: O=C(Nc1ccc2[nH]nc(-c3ccncc3)c2c1)[C@@H]1CCN(CC(=O)N2CCN(c3ccc(-c4ncccn4)cc3)CC2)C1; conditions: max 5 µM
# In short: as §1
# Crizotinib = compound: C[C@@H](Oc1cc(-c2cnn(C3CCNCC3)c2)cnc1N)c1c(Cl)ccc(F)c1Cl [Crizotinib]; conditions: max 10 µM
# In short: as §1
# Dasatinib = compound: CC1=C(C(=CC=C1)Cl)NC(=O)C2=CN=C(S2)NC3=CC(=NC(=N3)C)N4CCN(CC4)CCO [Dasatinib]; conditions: max 2 µM
# In short: as §1
# MK-2206 = compound: NC1(c2ccc(-c3nc4ccn5c(=O)[nH]nc5c4cc3-c3ccccc3)cc2)CCC1 [MK-2206]; conditions: max 10 µM
# In short: as §1
# AZD8186 = compound: C[C@@H](Nc1cc(F)cc(F)c1)c1cc(C(=O)N(C)C)cc2c(=O)cc(N3CCOCC3)oc12 [AZD8186]; conditions: max 10 µM
# In short: as §1
# SG3199 = compound: CC1=CN2[C@@H](C1)C=NC3=CC(=C(C=C3C2=O)OC)OCCCCCOC4=C(C=C5C(=C4)N=C[C@@H]6CC(=CN6C5=O)C)OC [SG3199]; conditions: max 0.001 µM
# In short: as §1
# AZD7648 = compound: Cc1cc2ncnn2cc1Nc1ncc2c(n1)n(C1CCOCC1)c(=O)n2C [AZD7648]; conditions: max 10 µM
# In short: as §1
# Gemcitabine = compound: Nc1ccn([C@@H]2O[C@H](CO)[C@@H](O)C2(F)F)c(=O)n1 [Gemcitabine]; conditions: max 0.3 µM
# In short: as §1
# Selumetinib = compound: Cn1cnc2c(F)c(Nc3ccc(Br)cc3Cl)c(C(=O)NOCCO)cc21 [Selumetinib]; conditions: max 10 µM
# In short: as §1
# Olaparib = compound: O=C(c1cc(Cc2n[nH]c(=O)c3ccccc23)ccc1F)N1CCN(C(=O)C2CC2)CC1 [Olaparib]; conditions: max 10 µM
# In short: as §1
# SN-38 = compound: CCc1c2c(nc3ccc(O)cc13)-c1cc3c(c(=O)n1C2)COC(=O)[C@]3(O)CC [SN-38]; conditions: max 0.3 µM
# In short: as §1
# Alisertib = compound: COc1cc(Nc2ncc3c(n2)-c2ccc(Cl)cc2C(c2c(F)cccc2OC)=NC3)ccc1C(=O)O [Alisertib]; conditions: max 10 µM
# In short: as §1
# Savolitinib = compound: C[C@@H](c1ccc2nccn2c1)n1nnc2ncc(-c3cnn(C)c3)nc21 [Savolitinib]; conditions: max 1 µM
# In short: as §1
# Etoposide = compound: COc1cc([C@@H]2c3cc4c(cc3[C@@H](O[C@@H]3O[C@@H]5CO[C@@H](C)O[C@H]5[C@H](O)[C@H]3O)[C@H]3COC(=O)[C@H]23)OCO4)cc(OC)c1O [Etoposide]; conditions: max 10 µM
# In short: as §1
# AZD5153 = compound: COc1nnc2ccc(N3CCC(c4ccc(OCCN5CCN(C)C(=O)[C@H]5C)cc4)CC3)nn12 [AZD5153]; conditions: max 1 µM
# In short: as §1
# AZD5363 = compound: C1CN(CCC1(C(=O)N[C@@H](CCO)C2=CC=C(C=C2)Cl)N)C3=NC=NC4=C3C=CN4 [AZD5363]; conditions: max 10 µM
# In short: as §1
# AZD6738 = compound: C[C@@H]1COCCN1C2=NC(=NC(=C2)C3(CC3)[S@](=N)(=O)C)C4=C5C=CNC5=NC=C4 [AZD6738]; conditions: max 10 µM
# In short: as §1
# Paclitaxel = compound: CC(=O)O[C@H]1C(=O)[C@@]2(C)[C@H]([C@H](OC(=O)c3ccccc3)[C@]3(O)C[C@H](OC(=O)[C@H](O)[C@@H](NC(=O)c4ccccc4)c4ccccc4)C(C)=C1C3(C)C)[C@]1(OC(C)=O)CO[C@@H]1C[C@@H]2O [Paclitaxel]; conditions: max 3 µM
# In short: as §1
# Doxorubicin = compound: COc1cccc2c1C(=O)c1c(O)c3c(c(O)c1C2=O)C[C@@](O)(C(=O)CO)C[C@@H]3O[C@H]1C[C@H](N)[C@H](O)[C@H](C)O1 [Doxorubicin]; conditions: max 1 µM
# In short: as §1
# Venetoclax = compound: CC1(C)CCC(CN2CCN(c3ccc(C(=O)NS(=O)(=O)c4ccc(NCC5CCOCC5)c([N+](=O)[O-])c4)c(Oc4cnc5[nH]ccc5c4)c3)CC2)=C(c2ccc(Cl)cc2)C1 [Venetoclax]; conditions: max 1 µM
# In short: as §1
Cell Line,"IC50, cell viability 72 h (Taselisib)","IC50, cell viability 72 h (AZD2811)","IC50, cell viability 72 h (AZD1390)","IC50, cell viability 72 h (Trametinib)","IC50, cell viability 72 h (AZD1775)","IC50, cell viability 72 h (AZD5991)","IC50, cell viability 72 h (AZD4320)","IC50, cell viability 72 h (Lapatinib)","IC50, cell viability 72 h (Palbociclib)","IC50, cell viability 72 h (AZD0156)","IC50, cell viability 72 h (5-Fluorouracil)","IC50, cell viability 72 h (SRA737)","IC50, cell viability 72 h (Prexasertib)","IC50, cell viability 72 h (Carboplatin)","IC50, cell viability 72 h (Gefitinib)","IC50, cell viability 72 h [1]","IC50, cell viability 72 h (Crizotinib)","IC50, cell viability 72 h (Dasatinib)","IC50, cell viability 72 h (MK-2206)","IC50, cell viability 72 h (AZD8186)","IC50, cell viability 72 h (SG3199)","IC50, cell viability 72 h (AZD7648)","IC50, cell viability 72 h (Gemcitabine)","IC50, cell viability 72 h (Selumetinib)","IC50, cell viability 72 h (Olaparib)","IC50, cell viability 72 h (SN-38)","IC50, cell viability 72 h (Alisertib)","IC50, cell viability 72 h (Savolitinib)","IC50, cell viability 72 h (Etoposide)","IC50, cell viability 72 h (AZD5153)","IC50, cell viability 72 h (AZD5363)","IC50, cell viability 72 h (AZD6738)","IC50, cell viability 72 h (Paclitaxel)","IC50, cell viability 72 h (Doxorubicin)","IC50, cell viability 72 h (Venetoclax)"
PSN1 (Pancreatic Carcinoma),5380 nM,> 1000 nM,> 300 nM,18.6 nM,1630 nM,> 1000 nM,> 1000 nM,> 10000 nM,> 10000 nM,> 3000 nM,7840 nM,> 10000 nM,> 1000 nM,> 10000 nM,> 10000 nM,193 nM,7760 nM,244 nM,> 10000 nM,> 10000 nM,> 1 nM,> 10000 nM,33.6 nM,952 nM,> 10000 nM,110 nM,> 10000 nM,> 1000 nM,8600 nM,> 1000 nM,> 10000 nM,> 10000 nM,61.9 nM,> 1000 nM,> 1000 nM
OPM-2 (Plasma Cell Myeloma),815 nM,> 1000 nM,> 300 nM,670 nM,559 nM,32.3 nM,691 nM,> 10000 nM,8600 nM,> 3000 nM,> 20000 nM,4980 nM,21.3 nM,> 10000 nM,> 10000 nM,> 5000 nM,4230 nM,> 2000 nM,4970 nM,> 10000 nM,> 1 nM,> 10000 nM,98 nM,> 10000 nM,> 10000 nM,108 nM,5670 nM,> 1000 nM,9350 nM,12.6 nM,1120 nM,3920 nM,6.68 nM,754 nM,> 1000 nM
HSC-39 (Gastric Carcinoma),791 nM,150 nM,> 300 nM,423 nM,398 nM,55.6 nM,> 1000 nM,5620 nM,4370 nM,> 3000 nM,16600 nM,519 nM,4.86 nM,> 10000 nM,> 10000 nM,2880 nM,2060 nM,> 2000 nM,> 10000 nM,> 10000 nM,> 1 nM,> 10000 nM,11.7 nM,> 10000 nM,> 10000 nM,7.39 nM,< 10 nM,> 1000 nM,1230 nM,322 nM,> 10000 nM,538 nM,4.55 nM,160 nM,561 nM
